Source: US20150209428A1, “PHARMACEUTICAL COMPOSITIONS FOR TOPICAL DELIVERY OF PHOTOSENSITIZERS AND USES THEREOF” (DERMIRA, INC., priority 2012, published 2015)

Legend:
[1] = Solubility of lemuteporfin in the LTS formulation (stirred, sampled, filtered); assay type: physicochemical; details: for Lemuteporfin content (% w/w), solubility in the formulation of Table 5: filtered
Procedure: The solution was stirred and samples were removed at various time points, and then filtered to determine the amount of undissolved lemuteporfin. The amount of lemuteporfin that dissolved was approximately 0.048%.
Studies were conducted to determine the effect of certain of the LTS excipients on the solubility of lemuteporfin.

[2] = Apparent solubility of lemuteporfin in various solvents (HPLC); assay type: physicochemical
Source text: The solubility of lemuteporfin in various solvent compositions is shown in the last column of Table 3. All values were obtained analytically by HPLC analysis.
Solubility results for lemuteporfin indicated maximum solubility in solvent-based formulations containing primarily benzyl alcohol. The amount of lemuteporfin that can be solubilized in benzyl alcohol following heating is approximately 2.5% w/w. The addition of other solvents reduces solubility by approximately the amount of the new solvent introduced. Diethylene glycol monoethyl ether (DGME) is about 20% as efficient at dissolving lemuteporfin as benzyl alcohol.

## lemuteporfin
[1]; isopropyl alcohol removed (data not shown)
  solubility of lemuteporfin in LTS solution system: 0.07 % w/w
[1]; room temperature
  amount of lemuteporfin that dissolved in the Table 5 components: approximately 0.048%
[1]; room temperature, time point 0.17 hours
  Lemuteporfin content (% w/w), solubility in the formulation of Table 5: 0.0241 % w/w
[1]; room temperature, time point 2.47 hours
  Lemuteporfin content (% w/w), solubility in the formulation of Table 5: 0.0482 % w/w
[1]; room temperature, time point 4.37 hours
  Lemuteporfin content (% w/w), solubility in the formulation of Table 5: 0.0453 % w/w
[1]; room temperature, time point 6.37 hours
  Lemuteporfin content (% w/w), solubility in the formulation of Table 5: 0.0463 % w/w
[1]; room temperature, time point 23.5 hours
  Lemuteporfin content (% w/w), solubility in the formulation of Table 5: 0.0370 % w/w
[1]; with isopropyl alcohol (data not shown)
  solubility of lemuteporfin in LTS solution system: approximately 0.03 % w/w
[1]; with polysorbate 80 (data not shown)
  solubility of lemuteporfin in LTS solution system: 0.037 % w/w
[1]; without polysorbate 80 (data not shown)
  solubility of lemuteporfin in LTS solution system: 0.027 % w/w
[2]; DGME versus benzyl alcohol
  efficiency of DGME at dissolving lemuteporfin relative to benzyl alcohol: about 20%
[2]; benzyl alcohol, following heating
  amount of lemuteporfin that can be solubilized in benzyl alcohol: approximately 2.5 % w/w
[2]; solvent % w/w: Benzyl Alcohol 30, Ethanol (190) 70
  Apparent Solubility, % w/w Lemuteporfin: 0.455 % w/w
[2]; solvent % w/w: Benzyl Alcohol 30, Oleyl Alcohol 70
  Apparent Solubility, % w/w Lemuteporfin: 0.166 % w/w
[2]; solvent % w/w: Benzyl Alcohol 40, Isopropyl Myristate 60
  Apparent Solubility, % w/w Lemuteporfin: 0.090 % w/w
[2]; solvent % w/w: Benzyl Alcohol 50, Ethanol (190) 50
  Apparent Solubility, % w/w Lemuteporfin: 0.453 % w/w
[2]; solvent % w/w: Benzyl Alcohol 50, Oleic Acid 50
  Apparent Solubility, % w/w Lemuteporfin: 0.409 % w/w
[2]; solvent % w/w: Benzyl Alcohol 50, Oleyl Alcohol 50
  Apparent Solubility, % w/w Lemuteporfin: 0.228 % w/w
[2]; solvent % w/w: Benzyl Alcohol 50, Propylene Glycol 50
  Apparent Solubility, % w/w Lemuteporfin: 0.494 % w/w
[2]; solvent % w/w: Benzyl Alcohol 90, Isopropyl Myristate 10
  Apparent Solubility, % w/w Lemuteporfin: 2.30 % w/w
[2]; solvent % w/w: Benzyl Alcohol 90, Oleic Acid 10
  Apparent Solubility, % w/w Lemuteporfin: 2.33 % w/w
[2]; solvent % w/w: Benzyl Alcohol 90, Oleyl Alcohol 5, Oleic Acid 5
  Apparent Solubility, % w/w Lemuteporfin: 2.22 % w/w
[2]; solvent % w/w: Benzyl Alcohol 90, Oleyl Alcohol 10
  Apparent Solubility, % w/w Lemuteporfin: 2.24 % w/w
[2]; solvent % w/w: Benzyl Alcohol 100
  Apparent Solubility, % w/w Lemuteporfin: 2.55 % w/w
[2]; solvent % w/w: DGME 45, Benzyl Alcohol 45, Oleyl Alcohol 5, Oleic Acid 5
  Apparent Solubility, % w/w Lemuteporfin: 1.373 % w/w
[2]; solvent % w/w: DGME 50, Benzyl Alcohol 15, Oleic Acid 35
  Apparent Solubility, % w/w Lemuteporfin: 0.230 % w/w
[2]; solvent % w/w: DGME 50, Benzyl Alcohol 15, Oleyl Alcohol 35
  Apparent Solubility, % w/w Lemuteporfin: 0.200 % w/w
[2]; solvent % w/w: DGME 50, Benzyl Alcohol 50
  Apparent Solubility, % w/w Lemuteporfin: 1.57 % w/w
[2]; solvent % w/w: DGME 52, Benzyl Alcohol 16, Oleyl Alcohol 16, Oleic Acid 16
  Apparent Solubility, % w/w Lemuteporfin: 0.210 % w/w
[2]; solvent % w/w: DGME 65, Oleyl Alcohol 17.5, Oleic Acid 17.5
  Apparent Solubility, % w/w Lemuteporfin: 0.271 % w/w
[2]; solvent % w/w: DGME 65, Oleyl Alcohol 35
  Apparent Solubility, % w/w Lemuteporfin: 0.430 % w/w
[2]; solvent % w/w: DGME 90, Isopropyl Myristate 10
  Apparent Solubility, % w/w Lemuteporfin: 0.430 % w/w
[2]; solvent % w/w: DGME 90, Oleyl Alcohol 5, Oleic Acid 5
  Apparent Solubility, % w/w Lemuteporfin: 0.420 % w/w
[2]; solvent % w/w: DGME 90, Oleyl Alcohol 10
  Apparent Solubility, % w/w Lemuteporfin: 0.420 % w/w
